# Test results from patent publication US11696914B1 (priority 2019, dated 2023).
# Read-outs that look alike come from different tables or passages of the source.
# Key:
# HeLa cells = conditions: human
# [1] = system: murine hepatitis virus (MHV); experiment: microbe, parasite or virus in culture; type: cell-based; conditions: Murine coronavirus, read-out: IC50 versus murine hepatitis virus (MHV)
# [2] = system: Ebola virus/H.sapiens-tc/GIN/2014/Makona-005 (EBOV/Mak); experiment: microbe, parasite or virus in culture; type: cell-based; conditions: Zaire ebolavirus, HeLa
# [3] = system: Ebola virus/H.sapiens-tc/COD/1995/Kikwit-9510621 (EBOV/Kik); experiment: microbe, parasite or virus in culture; type: cell-based; conditions: Zaire ebolavirus, HeLa
# SARS-CoV-2 Spike RBD = SARS-CoV-2 Spike RBD (Severe acute respiratory syndrome coronavirus 2, UniProt P0DTC2); type: binding
# Vaccinia Virus = experiment: microbe, parasite or virus in culture; type: cell-based; conditions: Orthopoxvirus vaccinia
# [4] = system: Marburg virus/H.sapiens-tc/KEN/1980/Mt. Elgon-Musoke (MARV/Mus); experiment: organism not typed; type: cell-based; conditions: HeLa
smiles,measurement,setting,value
"COc1ccc2nc3cc(Cl)ccc3c(Nc3cc(CN4CCCC4)c(O)c(CN4CCCC4)c3)c2n1 [Pyronaridine, 4-[(7-Chloro-2-methoxybenzo[b][1,5]naph-thyridin-10-yl)amino]-2,6-bis(1-pyrrolidinylmethyl)phenol phosphate (1:4)]",CC50,HeLa cells,4110 ± 500 nM
same,IC50,[1],2750 nM
same,IC50,[2],820 ± 190 nM
same,IC50,[3],1300 ± 420 nM
same,IC50,[3]; read-out: IC50 range against three strains of EBOV,820 to 1300 nM
same,Kd,SARS-CoV-2 Spike RBD; pH5.2,618 nM
same,Kd,SARS-CoV-2 Spike RBD; pH 7.4,647 nM
same,EC50,Vaccinia Virus,> 1200 nM
same,EC90,Vaccinia Virus,> 1200 nM
same,IC50,[4],1010 ± 110 nM
